Experimental findings from patent US20210221848A1, “POLYMYXIN DERIVATIVES AND THEIR USE IN COMBINATION THERAPY TOGETHER WITH DIFFERENT ANTIBIOTICS” (priority 2014, published 2021) are described below.

Like-named read-outs stand apart in the source and are kept apart here.

Assay [1] has as its system E. coli strains with elevated MICs to Polymyxin B. Put plainly: MIC against strains with elevated MICs to Polymyxin B. The class given is cell-based, Escherichia coli. The settings on record: Table 6D; for MIC E. coli 058: strain 058, elevated MIC to Polymyxin B. The protocol:
(§1) The inoculum was prepared by making a direct suspension of isolated colonies (selected from an 18-24 hour Mueller-Hinton agar plate) adjusted to the 0.5 McFarland standard. […] The assays were performed in duplicate. […] In cases where the duplicate values varied by less than 2-fold, the lower of the two values is reported. If a variation of greater than 2-fold was observed, the assay was considered non-valid. Several of the compounds were subjected to multiple tests, and where this is the case, the MIC reflects the modal value obtained.
(§2) The Further Synthesis Examples were tested against a range of Gram negative bacteria, and tested for HK-2 cell toxicity. All the worked examples, including the Synthesis and Further Synthesis Examples, were also tested against a range of Gram negative bacteria that are resistant to Polymyxin B (i.e. those strains where Polymyxin B has an elevated MIC value).

In assay [2] the test system is K. pneumoniae strains with elevated MICs to Polymyxin B. The description is as above. The format is cell-based, Klebsiella pneumoniae. The settings on record: Table 6D; for MIC K. pneumoniae 655: strain 655, elevated MIC to Polymyxin B. The method, then: as §1, §2
The test system of assay [3] is P. aeruginosa strains with elevated MICs to Polymyxin B. The description is as above. The class given is cell-based, Pseudomonas aeruginosa. The settings on record: Table 6D; for MIC P. aeruginosa 065: strain 065, elevated MIC to Polymyxin B. The method, then:
as §1, §2

Assay [4] concerns E. coli.
Assay [5] concerns K. pneumoniae.
For assay [6], the system named is P. aeruginosa.
The subject of assay [7] is A. baumannii.
Assay [8] has as its system A. baumanii strains with elevated MICs to Polymyxin B. In words: MIC against strains with elevated MICs to Polymyxin B. The format is cell-based, Acinetobacter baumannii. Particulars: Table 6D. The protocol: as §1, §2
Where [9] appears, read: absence of a second agent, Table 6B.

“(cis-5- cyclohexylpiperidine)- 3-carbonyl L-Thr-L- Dap-polymyxin B heptapeptide [Example D44]”: the “MIC E. coli 058” value in assay [1] is 2 micrograms/mL. Also, the “MIC K. pneumoniae 064” value in assay [2] (strain 064, elevated MIC to Polymyxin B) was found to be 2 micrograms/mL. Besides, the “MIC K. pneumoniae 655” value in assay [2] worked out at 32 micrograms/mL. In addition, the “MIC P. aeruginosa 065” value in assay [3] stood at 1 micrograms/mL. The “MIC P. aeruginosa 066” value in assay [3] (strain 066, elevated MIC to Polymyxin B) was 0.5 micrograms/mL. Moreover, the “MIC P. aeruginosa 067” value in assay [3] (strain 067, elevated MIC to Polymyxin B) came to 64 micrograms/mL. Also, in assay [4] (setting [9]), the “MIC, E. coli ATCC 25922” value was 1 micrograms/mL and the “MIC, E. coli NCTC 13441” value is reported as 0.5 micrograms/mL. In addition, in assay [5] (setting [9]), the “MIC, K. pneumoniae ATCC BAA-2146” value worked out at 0.5 micrograms/mL. Further, in assay [6] (setting [9]), the “MIC, P. aeruginosa ATCC 27853” value turned out to be 0.25 micrograms/mL and the “MIC, P. aeruginosa CCUG 59347” value is on record as 0.5 micrograms/mL. Moreover, in assay [7] (setting [9]), the “MIC, A. baumannii ATCC BAA-747” value amounted to 0.25 micrograms/mL.
With “Cis-5-(N- isobutylsulfamoyl) piperidine-3- carbonyl L-Thr-L- Dap-polymyxin B heptapeptide [Example D94]”, the “MIC E. coli 058” value in assay [1] amounted to 16 micrograms/mL. Also, in assay [3], the “MIC P. aeruginosa 065” value was 32 micrograms/mL. The “MIC, E. coli ATCC 25922” value in assay [4] (sole activity, Table 6C) worked out at 0.03 micrograms/mL. In assay [6] (sole activity, Table 6C), the “MIC, P. aeruginosa ATCC 27853” value is recorded as 0.5 micrograms/mL and the “MIC, P. aeruginosa CCUG 59347” value is 1 micrograms/mL. In assay [7] (sole activity, Table 6C), the “MIC, A. baumannii ATCC BAA-747” value is given as 0.06 micrograms/mL and the “MIC, A. baumannii NCTC 13424” value came to 0.06 micrograms/mL.
As to “(cis-6-octylpiperidine)- 3-carbonyl polymyxin B nonapeptide [Example D17]”, in assay [4] (setting [9]), the “MIC, E. coli ATCC 25922” value amounted to 2 micrograms/mL and the “MIC, E. coli NCTC 13441” value was 2 micrograms/mL. Also, in assay [5] (setting [9]), the “MIC, K. pneumoniae ATCC 4352” value stood at 2 micrograms/mL and the “MIC, K. pneumoniae ATCC BAA-2146” value was 2 micrograms/mL. Further, in assay [6] (setting [9]), the “MIC, P. aeruginosa ATCC 27853” value was 0.5 micrograms/mL and the “MIC, P. aeruginosa CCUG 59347” value was 0.5 micrograms/mL. For the same substance, in assay [7] (setting [9]), the “MIC, A. baumannii ATCC BAA-747” value was found to be 2 micrograms/mL and the “MIC, A. baumannii NCTC 13424” value turned out to be 4 micrograms/mL.
“(S)-4-amino-2- (benzyloxy)butan- oyl Polymyxin B nonapeptide [Example D54]”: in assay [4] (sole activity, Table 6C), the “MIC, E. coli ATCC 25922” value was 0.25 micrograms/mL and the “MIC, E. coli NCTC 13441” value came out at 0.5 micrograms/mL. In addition, in assay [5] (sole activity, Table 6C), the “MIC, K. pneumoniae ATCC 4352” value is 0.125 micrograms/mL and the “MIC, K. pneumoniae ATCC BAA-2146” value is 0.25 micrograms/mL. For the same substance, in assay [6] (sole activity, Table 6C), the “MIC, P. aeruginosa ATCC 27853” value is given as 0.5 micrograms/mL and the “MIC, P. aeruginosa CCUG 59347” value is reported as 1 micrograms/mL. Also, in assay [7] (sole activity, Table 6C), the “MIC, A. baumannii ATCC BAA-747” value is 1 micrograms/mL and the “MIC, A. baumannii NCTC 13424” value is 4 micrograms/mL.
Take “(S)-1-((2,3- dihydrobenzo[b][1,4] dioxin-6- yl)methyl)piperazine- 2-carbonyl polymyxin B nonapeptide [Example D58]”: in assay [4] (sole activity, Table 6C), the “MIC, E. coli ATCC 25922” value was found to be 0.25 micrograms/mL and the “MIC, E. coli NCTC 13441” value is 0.25 micrograms/mL. In assay [5] (sole activity, Table 6C), the “MIC, K. pneumoniae ATCC 4352” value worked out at 0.25 micrograms/mL and the “MIC, K. pneumoniae ATCC BAA-2146” value is listed as 0.25 micrograms/mL. Besides, in assay [6] (sole activity, Table 6C), the “MIC, P. aeruginosa ATCC 27853” value is listed as 0.5 micrograms/mL and the “MIC, P. aeruginosa CCUG 59347” value was 1 micrograms/mL. Further, in assay [7] (sole activity, Table 6C), the “MIC, A. baumannii ATCC BAA-747” value was found to be 1 micrograms/mL and the “MIC, A. baumannii NCTC 13424” value was determined as 0.5 micrograms/mL.
For “1-(2- trifluoromethylben- zyl)piperazine- 2-carbonyl polymyxin E nonapeptide [Example D72]”, the “MIC E. coli 059” value in assay [1] (strain 059, elevated MIC to Polymyxin B) amounted to 16 micrograms/mL. Moreover, the “MIC E. coli 060” value in assay [1] (strain 060, elevated MIC to Polymyxin B) was found to be 8 micrograms/mL. In assay [1] (strain 061, elevated MIC to Polymyxin B), the “MIC E. coli 061” value came to 16 micrograms/mL. The “MIC K. pneumoniae 062” value in assay [2] (strain 062, elevated MIC to Polymyxin B) is 64 micrograms/mL. Also, the “MIC K. pneumoniae 063” value in assay [2] (strain 063, elevated MIC to Polymyxin B) turned out to be 32 micrograms/mL. In addition, the “MIC K. pneumoniae 655” value in assay [2] came to 64 micrograms/mL. Also, the “MIC A. baumannii 053” value in assay [8] (strain 053, elevated MIC to Polymyxin B) is above 128 micrograms/mL. Besides, the “MIC A. baumannii 056” value in assay [8] (strain 056, elevated MIC to Polymyxin B) is 128 micrograms/mL. Moreover, the “MIC A. baumannii 068” value in assay [8] (strain 068, elevated MIC to Polymyxin B) was found to be 64 micrograms/mL. Also, the “MIC A. baumannii 070” value in assay [8] (strain 070, elevated MIC to Polymyxin B) turned out to be 128 micrograms/mL. In assay [4] (sole activity, Table 6C), the “MIC, E. coli ATCC 25922” value was determined as 0.25 micrograms/mL and the “MIC, E. coli NCTC 13441” value is listed as 0.25 micrograms/mL. For the same substance, in assay [5] (sole activity, Table 6C), the “MIC, K. pneumoniae ATCC 4352” value was determined as 0.125 micrograms/mL and the “MIC, K. pneumoniae ATCC BAA-2146” value is 0.25 micrograms/mL. In addition, in assay [6] (sole activity, Table 6C), the “MIC, P. aeruginosa ATCC 27853” value is on record as 0.5 micrograms/mL and the “MIC, P. aeruginosa CCUG 59347” value stood at 1 micrograms/mL. For the same substance, the “MIC, A. baumannii ATCC BAA-747” value in assay [7] (sole activity, Table 6C) was 0.125 micrograms/mL.
For the substance “(trans-6- octylpiperidine)-3- carbonyl polymyxin B nonapeptide [Example D18]”, in assay [4] (setting [9]), the “MIC, E. coli ATCC 25922” value is 4 micrograms/mL and the “MIC, E. coli NCTC 13441” value is given as 4 micrograms/mL. In addition, in assay [5] (setting [9]), the “MIC, K. pneumoniae ATCC 4352” value is given as 8 micrograms/mL and the “MIC, K. pneumoniae ATCC BAA-2146” value is listed as above 8 micrograms/mL. Besides, in assay [6] (setting [9]), the “MIC, P. aeruginosa ATCC 27853” value turned out to be 4 micrograms/mL and the “MIC, P. aeruginosa CCUG 59347” value was 2 micrograms/mL. For the same substance, in assay [7] (setting [9]), the “MIC, A. baumannii ATCC BAA-747” value is above 8 micrograms/mL and the “MIC, A. baumannii NCTC 13424” value was above 8 micrograms/mL.
As for “2-(2-aminoethyl)-4- methyl pentanoyl polymyxin B nonapeptide [Example D45]”, in assay [4] (setting [9]), the “MIC, E. coli ATCC 25922” value came out at 0.5 micrograms/mL and the “MIC, E. coli NCTC 13441” value stood at 2 micrograms/mL. In assay [5] (setting [9]), the “MIC, K. pneumoniae ATCC 4352” value worked out at 0.5 micrograms/mL and the “MIC, K. pneumoniae ATCC BAA-2146” value is listed as 2 micrograms/mL. In assay [6] (setting [9]), the “MIC, P. aeruginosa ATCC 27853” value came to 1 micrograms/mL and the “MIC, P. aeruginosa CCUG 59347” value came to 4 micrograms/mL. Moreover, in assay [7] (setting [9]), the “MIC, A. baumannii ATCC BAA-747” value is 8 micrograms/mL and the “MIC, A. baumannii NCTC 13424” value amounted to 4 micrograms/mL.
For the substance “(S)-4-amino-2- (((S)-6- methyloctanoyl)ox- y)butanoyl polymyxin B nonapeptide [Example D93]”, the “MIC E. coli 058” value in assay [1] turned out to be 8 micrograms/mL. Moreover, in assay [3], the “MIC P. aeruginosa 065” value was determined as 2 micrograms/mL. In addition, in assay [4] (sole activity, Table 6C), the “MIC, E. coli ATCC 25922” value came out at 0.25 micrograms/mL. In addition, in assay [5] (sole activity, Table 6C), the “MIC, K. pneumoniae ATCC 4352” value worked out at 0.25 micrograms/mL. Further, in assay [6] (sole activity, Table 6C), the “MIC, P. aeruginosa ATCC 27853” value was 0.25 micrograms/mL and the “MIC, P. aeruginosa CCUG 59347” value came out at 1 micrograms/mL. Besides, in assay [7] (sole activity, Table 6C), the “MIC, A. baumannii ATCC BAA-747” value worked out at 0.25 micrograms/mL and the “MIC, A. baumannii NCTC 13424” value amounted to 0.5 micrograms/mL.
As to “6- isobutylpiperazine- 2-carbonyl L- Thr-L-Dap- polymyxin B heptapeptide [Example D80]”, the “MIC, E. coli ATCC 25922” value in assay [4] (sole activity, Table 6C) turned out to be 0.5 micrograms/mL. Moreover, the “MIC, K. pneumoniae ATCC 4352” value in assay [5] (sole activity, Table 6C) worked out at 0.25 micrograms/mL. Besides, in assay [6] (sole activity, Table 6C), the “MIC, P. aeruginosa ATCC 27853” value stood at 0.5 micrograms/mL and the “MIC, P. aeruginosa CCUG 59347” value is listed as 0.5 micrograms/mL. Also, in assay [7] (sole activity, Table 6C), the “MIC, A. baumannii ATCC BAA-747” value was 0.5 micrograms/mL and the “MIC, A. baumannii NCTC 13424” value stood at 0.5 micrograms/mL.
